Earlier results in patent US12052992B2, “Insecticidal composition” (CLARKE MOSQUITO CONTROL PRODUCTS, INC., priority 2017, dated 2024).

Details: comparison value for water

In the case of `O` [water], the “evaporation rate λ” value is listed as 62.40 μm^2 s^−1° C.^−1.
